# Source: US20110104074A1, “METHODS FOR TARGETED CANCER TREATMENT AND DETECTION” (UNIVERSITY OF LOUISVILLE RESEARCH FOUNDATION, INC., priority 2008, published 2011)
# Ends that are not written are not given here.
# What was measured:
# [1] = tested on: ovarian epithelial tumor cells lines (A2780, CAOV3, and UCI), and a cisplatin-resistant cell line (A2780/CP70); assay: Cell viability (MTT, 96-titer kit) in ovarian tumor cell lines; conditions: concentrations from 1 to 5 nM; cisplatin-sensitive and cisplatin-resistant cell lines
# [2] = tested on: A2780 ovarian tumor cells; assay: Uptake of doxorubicin by ovarian tumor cells in vitro (fluorometric); type: cell-based; conditions: 5 nM DOX
# Method: To determine the uptake of doxorubicin by ovarian tumor cells in vitro, ovarian tumor cells (A2780) were plated in 6-well plates. After 24 hrs of incubation, the medium was replaced with fresh medium and cells were then treated with PBS, free DOX (DOX concentration=5 nM), DOX-NPs (5 nM DOX), or LHRH-NP-DOXs (5 nM DOX). After 2, 4, and 24 hrs of incubation, cells were rinsed with PBS and scrapped off the plates and centrifuged. The pellets were resuspended in lysis buffer [[…] sucrose, 5 mM TrisHCl, 1 mM MgSO4, 1 mM CaCl2 (pH 7.6)] and homogenized using a polytron homogenizer. A 200:1 dilution of the homogenate from each sample was then transferred in triplicate to 2 ml centrifuge tubes and 100:1 of 10% (v/v) Triton X-100, 200:1 of water, and 1,500:1 of acidified isopropanol (0.75 N HCl) was added. The tubes were vortexed to ensure complete mixing and doxorubicin was extracted overnight at −20° C. The next day, the samples were thawed to room temperature, and then centrifuged at 15,000×g for 20 min. The supernatant was collected. Doxorubicin was measured fluorometrically (EX485 nm/EM590 nm) as described previously (3).
# [3] = target: T1, LHRH receptor (Mus musculus, UniProt Q01776); assay: pCRE-luciferase reporter assay in LβT2 cells for binding to cell surface LHRH receptors; type: cell-based; conditions: 6 hrs treatment, read-out: binding affinities (IC50 values)
# T1 construct: endogenous in cells; host or cells: LβT2 mouse gonadotrope tumor cell line
# T1 sequence (Q01776 1-327): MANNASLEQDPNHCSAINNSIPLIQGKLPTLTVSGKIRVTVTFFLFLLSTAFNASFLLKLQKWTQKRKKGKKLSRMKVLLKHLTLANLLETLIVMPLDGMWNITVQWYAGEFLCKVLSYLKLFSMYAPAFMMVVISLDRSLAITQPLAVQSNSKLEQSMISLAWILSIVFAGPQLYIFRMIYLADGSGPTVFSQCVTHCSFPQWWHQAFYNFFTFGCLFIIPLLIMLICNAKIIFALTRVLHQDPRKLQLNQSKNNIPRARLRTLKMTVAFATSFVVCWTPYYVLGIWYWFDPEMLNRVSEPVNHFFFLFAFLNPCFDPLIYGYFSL
# Method: To determine if LHRH, when conjugated to gold particles or FNPs, retained its binding affinity to the luteinizing hormone-releasing hormone receptor and its biological activity, the binding of LHRH, LHRH-NP-DOXs, and LHRH-FNP-DOXs to cell surface LHRH receptors was first examined For this purpose, a mouse gonadotrope tumor cell line (LβT2) was used that expresses high levels of high affinity LHRH receptors (82). The LβT2 cells were plated on 6-well plates. After 24 hrs, the cells were transfected with a reporter gene construct, pCRE-luciferase plasmid, as described previously (82). After 24 hrs of transfection, the medium was replaced with serum free medium, followed by incubation for 4 hrs, and then treatment of the cells with various concentrations of LHRH or LHRH-NP-DOXs for 6 hrs. Cells were then lysed and assayed for luciferase activity using a luciferase assay kit (Promega, Madison, Wis.). Binding of LHRH or LHRH-NP-DOX particles was calculated and compared as described previously (82). Experiments were repeated three times for every new preparation.
IC50 [3] [nM],Compound,efficacy on cell death [1],doxorubicin found in cells compared to LHRH-NP-DOXs ([2]; after 24 hrs),doxorubicin found in cells ([2]; within 4 hrs)
,"COc1cccc2c1C(=O)c1c(O)c3c(c(O)c1C2=O)C[C@@](O)(C(=O)CO)C[C@@H]3O[C@H]1C[C@H](N)[C@H](O)[C@H](C)O1 [DOX, doxorubicin, reference compound]",ineffective,significantly lower,no detectable amount
0.1,"CC(C)C[C@H](NC(=O)[C@@H](Cc1c[nH]c2ccccc12)NC(=O)[C@H](Cc1ccc(O)cc1)NC(=O)[C@H](CO)NC(=O)[C@H](Cc1c[nH]c2ccccc12)NC(=O)[C@H](Cc1c[nH]cn1)NC(=O)[C@@H]1CCC(=O)N1)C(=O)N[C@@H](CCCNC(=N)N)C(=O)N1CCC[C@H]1C(=O)NCC(N)=O [LHRH, p-Glu-His-Trp-Ser-Tyr-D-Trp-Leu-Arg-Gly-NH2, reference compound]",ineffective,,
,"LHRH-DOX (QHWSYGLRPG; also: doxorubicin conjugate; UniProt P01148 24-33, looked up)",ineffective,,
